Test results: patent publication US4861793A, “D-nor-7-ergoline derivatives having anti-Parkinson and antipsychosis activity and pharmaceutical compositions containing them” (Farmitalia Carlo Erba, S.p.A, priority 1986, dated 1989)

What was measured:
α2 receptors = target: T1, α2 receptors (Rattus norvegicus, UniProt P22909); assay: affinity to α2 receptors (test described by Djop, J. Neurochemistry, 41, p. 710 (1983)); format: binding; conditions: α2 receptor; IC means inhibitory concentration
T1 construct: from tissue
T1 sequence (P22909 1-465): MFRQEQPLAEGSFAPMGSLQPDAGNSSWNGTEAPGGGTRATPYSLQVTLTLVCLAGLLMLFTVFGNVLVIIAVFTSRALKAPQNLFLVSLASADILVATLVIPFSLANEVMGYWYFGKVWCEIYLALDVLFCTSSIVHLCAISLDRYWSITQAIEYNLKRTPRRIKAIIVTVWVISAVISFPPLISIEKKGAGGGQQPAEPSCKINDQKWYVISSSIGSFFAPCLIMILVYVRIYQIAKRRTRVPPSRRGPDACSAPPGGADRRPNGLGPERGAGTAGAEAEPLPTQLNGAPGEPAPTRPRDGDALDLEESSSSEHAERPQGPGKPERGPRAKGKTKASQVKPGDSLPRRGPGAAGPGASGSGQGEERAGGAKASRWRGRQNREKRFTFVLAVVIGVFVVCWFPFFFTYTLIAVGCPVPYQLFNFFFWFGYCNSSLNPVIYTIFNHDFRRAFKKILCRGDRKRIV
Text: (§1) The activity of the compounds of the present invention has been confirmed by their affinity to α2 and D1 receptors, according to the tests described by Djop, J. Neurochemistry, 41, p. 710 (1983) and by Billard et al., Life Science, p. 35 (1985).

D1 receptors = target: T2, D1 receptors (Rattus norvegicus, UniProt P18901); assay: affinity to D1 receptors (test described by Billard et al., Life Science, p. 35 (1985)); format: binding; conditions: D1 receptor; IC means inhibitory concentration
T2 construct: from tissue
Text: as §1

T2 sequence (P18901 whole entry): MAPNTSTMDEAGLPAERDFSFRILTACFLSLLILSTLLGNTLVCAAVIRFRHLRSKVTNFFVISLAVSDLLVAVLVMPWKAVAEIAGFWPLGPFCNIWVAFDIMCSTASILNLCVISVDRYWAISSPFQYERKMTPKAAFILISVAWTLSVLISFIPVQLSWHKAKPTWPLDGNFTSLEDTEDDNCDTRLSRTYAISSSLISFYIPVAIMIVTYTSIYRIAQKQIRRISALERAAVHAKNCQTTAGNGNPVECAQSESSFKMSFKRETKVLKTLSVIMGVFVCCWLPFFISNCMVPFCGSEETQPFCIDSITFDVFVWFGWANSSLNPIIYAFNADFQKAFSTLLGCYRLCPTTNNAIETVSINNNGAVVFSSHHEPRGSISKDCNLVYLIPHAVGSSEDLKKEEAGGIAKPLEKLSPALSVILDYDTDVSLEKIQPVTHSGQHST

IC50 (α2 receptors) | IC50 (D1 receptors) | SMILES
40 pM | 700 pM | CN1C(CCNC(=O)OCc2ccccc2)CC2c3cccc4[nH]cc(c34)CC21 [Example 8, D-nor-6-methyl-7-benzyloxycarbamoylethyl-ergoline]
400 pM | 900 pM | CCNC(=O)N(CCCN(C)C)C(=O)CC1CC2c3cccc4[nH]cc(c34)CC2N1C [Example 6, D-nor-6-methyl-7[N-(3-dimethylaminopropyl)-N-(ethylcarbamoyl)]-carbamoylmethyl-ergoline]
50 pM | 400 pM | CN1C(CCN2CC(=O)NC2=O)CC2c3cccc4[nH]cc(c34)CC21 [Example 10, D-nor-6-methyl-7-(2,4-dioxo-1-imidazolidinyl-ethyl)-ergoline]
